# Source: paper PMC7462607 (eLife, 2020)
# Where “and” joins values, the source holds several entries; their conditions need not be identical. Equal entries are not always repeated. Where two headings read alike, the source gives them in different places.
# Tests used:
# [1] = test system: A549 cells stably expressing 3xFLAG-CDK12 WT/G731E/G731R; experiment: Cell viability assay, A549 cells stably expressing wild-type or G731E/R mutant CDK12; type: cell-based; conditions: Homo sapiens
# Procedure: (§1) Seven hundred A549 cells or 1,000 HCT-116 cells in 50 µL of medium were plated per well in 384-well flat clear bottom white polystyrene TC-treated microplates (Corning, Corning, USA). After overnight attachment, cells were dosed with a serial dilution of HQ461 with a D300e digital dispenser (Tecan, Männedorf, Switzerland). Cell survival was measured 72 hr later using CellTiter-Glo luminescent cell viability assay kit (Promega, Madison, USA) following vendor instructions. Luminescence was recorded by EnVison multimode plate reader (PerkinElmer, Waltham, USA). IC50 was determined with GraphPad Prism using baseline correction (by normalizing to DMSO control), the asymmetric (five parameter) equation, and least squares fit.
# An ORF encoding CDK12 isoform 2 (NM_015083.3) was PCR amplified from A549 cDNA and cloned into a pCDNA3.1-N-3xFLAG vector which was derived from the pCDNA3.1 vector. G731E and G731R mutations in CDK12 were introduced by overlap extension PCR. After sequencing verification, wild-type and mutant 3xFLAG-CDK12 sequences were subcloned into lentiCas9-Blast (Addgene 52962) by replacing the Cas9 ORF with 3xFLAG-CDK12. The resulting lenti-EF1α−3xFLAG-CDK12-P2A-BSD WT/GE/GR constructs were packaged into lentiviral vectors to transduce A549 cells. Stable cell lines were obtained by selection with 20 µg/ml of blasticidin.
# CCNK-luc reporter = experiment: CCNK-luc degradation assay; type: cell-based, Homo sapiens; conditions: 8 hr
# Procedure: The ORF for CCNK was fused with the firefly luciferase (luc) sequence and inserted into the pCDNA3.1 vector. For setting up cells for co-transfection, 0.6 million 293 T cells were seeded per well in 6-well plates and allowed to attach to plates overnight. These cells were then transfected with 50 ng of pCDNA3.1-3xFLAG-CDK12 kinase domain, 50 ng of pCDNA3.1-CCNK-luc, and 400 ng of the empty pCDNA3.1 vector. Twenty-four hours later, transfected cells were dissociated by trypsin digestion and then plated in 96-well white plates. After overnight attachments, cells were then treated with HQ461 and its analog derivatives for 8 hr followed by measurements of luciferase activity with Bright-Glo luciferase assay system (Promega, Madison, USA). Half maximal CCNK-degradation concentrations (DC50) of HQ461 and its active analogs were interpolated by curve fitting with GraphPad Prism using baseline correction (by normalizing to DMSO control), the asymmetric (five parameter) equation, and least squares fit.
# [2] = target: T1, CDK13 kinase domain/CCNK-3xHA (Homo sapiens, UniProt Q14004); experiment: Co-expression of 3xFLAG-CDK13 kinase domain with CCNK-3xHA; type: cell-based; conditions: 293T, HQ461 8 hr; not with G709E or G709R
# T1 construct: ORFs encoding residues 715–1052 of CDK12 and residues 693–1030 of CDK13; expressed in transfected cells; host or cells: 293T
# T1 sequence (O75909 whole entry, the tested form may be a part): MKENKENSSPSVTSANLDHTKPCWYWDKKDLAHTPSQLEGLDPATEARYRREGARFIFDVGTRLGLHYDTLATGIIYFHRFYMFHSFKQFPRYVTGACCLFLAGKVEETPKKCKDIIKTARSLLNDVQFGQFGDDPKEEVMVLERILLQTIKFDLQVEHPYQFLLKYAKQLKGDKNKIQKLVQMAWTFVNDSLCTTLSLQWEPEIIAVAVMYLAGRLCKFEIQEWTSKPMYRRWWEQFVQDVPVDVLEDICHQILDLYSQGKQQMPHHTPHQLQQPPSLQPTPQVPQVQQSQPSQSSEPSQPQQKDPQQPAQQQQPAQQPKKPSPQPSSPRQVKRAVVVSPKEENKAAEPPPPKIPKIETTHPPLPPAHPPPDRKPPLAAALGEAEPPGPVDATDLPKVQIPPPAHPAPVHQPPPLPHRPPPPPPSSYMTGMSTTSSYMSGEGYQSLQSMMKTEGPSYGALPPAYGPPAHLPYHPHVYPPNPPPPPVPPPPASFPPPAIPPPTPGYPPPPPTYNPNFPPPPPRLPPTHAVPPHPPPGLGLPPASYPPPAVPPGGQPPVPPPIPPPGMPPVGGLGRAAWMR
# T1 sequence (Q14004 693-1030): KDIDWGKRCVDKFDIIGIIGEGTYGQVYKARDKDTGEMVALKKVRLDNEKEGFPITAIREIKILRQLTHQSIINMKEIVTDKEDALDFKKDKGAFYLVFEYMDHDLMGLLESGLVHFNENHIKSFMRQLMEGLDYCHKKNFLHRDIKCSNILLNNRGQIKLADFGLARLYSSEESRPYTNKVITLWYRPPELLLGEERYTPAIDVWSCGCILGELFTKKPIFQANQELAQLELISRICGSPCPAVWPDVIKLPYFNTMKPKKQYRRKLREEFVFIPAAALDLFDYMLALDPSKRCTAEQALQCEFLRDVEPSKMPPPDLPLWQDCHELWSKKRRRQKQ
# T1 sequence (Q16531 2-1140, further chain): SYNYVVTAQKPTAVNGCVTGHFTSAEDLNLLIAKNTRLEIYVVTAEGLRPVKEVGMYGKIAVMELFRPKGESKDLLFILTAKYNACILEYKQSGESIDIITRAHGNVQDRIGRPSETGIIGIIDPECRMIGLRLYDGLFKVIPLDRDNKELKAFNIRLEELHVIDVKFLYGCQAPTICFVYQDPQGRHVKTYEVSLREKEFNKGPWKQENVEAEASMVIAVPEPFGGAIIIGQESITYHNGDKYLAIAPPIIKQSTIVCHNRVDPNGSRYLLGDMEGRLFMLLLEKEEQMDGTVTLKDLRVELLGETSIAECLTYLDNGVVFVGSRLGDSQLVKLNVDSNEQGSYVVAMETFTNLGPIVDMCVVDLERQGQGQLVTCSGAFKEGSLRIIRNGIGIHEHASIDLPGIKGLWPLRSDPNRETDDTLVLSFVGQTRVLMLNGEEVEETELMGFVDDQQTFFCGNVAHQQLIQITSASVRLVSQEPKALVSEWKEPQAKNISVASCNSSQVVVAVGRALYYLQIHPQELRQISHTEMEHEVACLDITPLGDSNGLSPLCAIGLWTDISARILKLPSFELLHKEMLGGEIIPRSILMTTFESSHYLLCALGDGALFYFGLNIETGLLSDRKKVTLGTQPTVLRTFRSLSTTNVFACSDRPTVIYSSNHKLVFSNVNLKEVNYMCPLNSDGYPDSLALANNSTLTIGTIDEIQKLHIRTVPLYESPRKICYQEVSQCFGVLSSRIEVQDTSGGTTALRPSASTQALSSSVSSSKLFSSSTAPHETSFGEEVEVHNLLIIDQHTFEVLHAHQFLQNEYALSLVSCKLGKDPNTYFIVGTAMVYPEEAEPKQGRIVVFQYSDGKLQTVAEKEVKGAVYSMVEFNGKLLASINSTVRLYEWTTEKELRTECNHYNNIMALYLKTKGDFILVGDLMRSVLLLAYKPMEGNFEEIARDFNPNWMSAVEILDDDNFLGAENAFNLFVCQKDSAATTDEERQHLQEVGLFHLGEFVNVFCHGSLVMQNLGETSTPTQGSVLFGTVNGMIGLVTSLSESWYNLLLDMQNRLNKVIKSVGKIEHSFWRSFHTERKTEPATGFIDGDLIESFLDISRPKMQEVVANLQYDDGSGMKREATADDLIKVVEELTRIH
# Procedure: (§2) ORFs encoding residues 715–1052 of CDK12 and residues 693–1030 of CDK13 were cloned into a pCDNA3.1-N-3xFLAG vector. For setting up cells for co-transfection, 0.6 million 293 T cells were seeded per well in 6-well tissue-culture plates and allowed to attach to plates overnight. These cells were then transfected with 50 ng of pCDNA3.1-3xFLAG-CDK12/13 kinase domain, 50 ng of pCDNA3.1-CCNK-3xHA, and 400 ng of the empty pCDNA3.1 vector. Twenty-four hours post transfection, cells were treated with HQ461 for 8 hr, and lysates were collected for western blotting with anti-FLAG and anti-HA antibodies.
# HCT-116 cells = experiment: Cell viability assay, parental HCT-116 and HQ461-resistant HCT-116 clones; type: cell-based, Homo sapiens; conditions: for CellTiter-Glo (ATP): raw signal, listed as 0461; for IC50: Homo sapiens, HCT-116
# Procedure: as §1
# Parental HCT-116 were plated sparsely on 10 cm plates to allow the isolation of ten individual clones. Each of these ten clones were expanded to one confluent 15 cm plate to establish ten independent cell populations. One million cells from each population were then plated on one 10 cm plate and treated with 20 µM HQ461 continuously for two weeks, with media change every 3 to 4 days. HQ461 resistant clones emerged from 5 out of the 10 populations. These clones were isolated, expanded, and tested for their sensitivity to HQ461 using cell viability assay. Five HQ461-resistant clones selected from independent populations were subjected to genomic DNA isolation as described in the previous session. Their genomic DNAs were then pooled in equal amounts for whole-exome sequencing at 200x average coverage (Novogene, Beijing, China). As a control, genomic DNAs isolated from the corresponding cell populations before HQ461 selection were also pooled for whole-exome sequencing. Raw sequencing data have been deposited to NCBI GEO (GSE153707).
# [3] = target: T2, CDK12 kinase domain/CCNK-3xHA (Homo sapiens, UniProt Q9NYV4); experiment: Co-expression of 3xFLAG-CDK12 kinase domain with CCNK-3xHA; type: cell-based; conditions: 293T, HQ461 8 hr; not with G731E or G731R
# T2 construct: ORFs encoding residues 715–1052 of CDK12 and residues 693–1030 of CDK13; expressed in transfected cells; host or cells: 293T
# T2 sequence (Q9NYV4 715-1052): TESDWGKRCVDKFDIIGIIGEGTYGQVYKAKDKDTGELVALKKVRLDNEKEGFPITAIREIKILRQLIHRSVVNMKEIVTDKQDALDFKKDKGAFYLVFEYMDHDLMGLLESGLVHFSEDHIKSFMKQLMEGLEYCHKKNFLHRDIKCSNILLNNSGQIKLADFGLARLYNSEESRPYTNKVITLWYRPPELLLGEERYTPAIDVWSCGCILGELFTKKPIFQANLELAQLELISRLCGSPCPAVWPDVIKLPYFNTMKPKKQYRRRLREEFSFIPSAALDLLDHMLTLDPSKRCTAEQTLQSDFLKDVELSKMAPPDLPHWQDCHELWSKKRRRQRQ
# T2 sequence (O75909 whole entry partner, the tested form may be a part): as the sequence (O75909 whole entry, the tested form may be a part) above
# T2 sequence (Q16531 2-1140 partner limits assumed): as the sequence (Q16531 2-1140, further chain) above
# Procedure: as §2
smiles,measurement,setting,value
"Cc1cccc(Nc2nc(CC(=O)Nc3ncc(C)s3)cs2)n1 [HQ461, 2-(2-((6-methylpyridin-2-yl)amino)thiazol-4-yl)-N-(5-methylthiazol-2-yl)acetamide]",IC50,"[1]; CDK12 G731E, read-out: IC50 on the viability of A549 cells stably expressing G731E mutant CDK12",16.9 µM
same,IC50,"[1]; CDK12 G731R, read-out: IC50 on the viability of A549 cells stably expressing G731R mutant CDK12",22.9 µM
same,IC50,[1]; read-out: IC50 on the viability of A549 cells stably expressing wild-type CDK12,1.3 µM
same,"Dmax (10 μM), percentage of CCNK degradation relative to DMSO control",CCNK-luc reporter; 10 µM,86.0%
same,DC50,"CCNK-luc reporter; 293T, read-out: DC50 (half maximal CCNK-degradation concentration)",0.132 µM
same,CCNK degradation with co-expressed wild-type CDK13 kinase domain,[2],sufficient for mediating HQ461-dependent degradation of CCNK
same,CellTiter-Glo (ATP),"HCT-116 cells; HCT-116 Parental, 1.43856e-6 M",1.76E+06 and 1.77E+06 and 2.14E+06 and 2.07E+06
same,CellTiter-Glo (ATP),"HCT-116 cells; HCT-116 Parental, 1.85257e-5 M",147560 and 197570
same,CellTiter-Glo (ATP),"HCT-116 cells; HCT-116 Parental, 1.91632e-5 M",303300 and 182560
same,CellTiter-Glo (ATP),"HCT-116 cells; HCT-116 Parental, 3.09439e-5 M",96830 and 121990
same,CellTiter-Glo (ATP),"HCT-116 cells; HCT-116 Parental, 3.21364e-5 M",122490 and 116460
same,CellTiter-Glo (ATP),"HCT-116 cells; HCT-116 Parental, 5.00E-07 M",1.93E+06 and 2.16E+06
same,CellTiter-Glo (ATP),"HCT-116 cells; HCT-116 Parental, 5.19E-07 M",1.68E+06 and 1.79E+06
same,CellTiter-Glo (ATP),"HCT-116 cells; HCT-116 Parental, 7.99E-07 M",2.18E+06 and 1.85E+06
same,CellTiter-Glo (ATP),"HCT-116 cells; HCT-116 Parental, 8.79E-07 M",1.85E+06 and 1.84E+06
same,CellTiter-Glo (ATP),"HCT-116 cells; HCT-116 resistant clone 2R, 1.27872e-6 M",1.68E+06 and 1.80E+06
same,CellTiter-Glo (ATP),"HCT-116 cells; HCT-116 resistant clone 2R, 1.35864e-6 M",1.87E+06 and 1.72E+06
same,CellTiter-Glo (ATP),"HCT-116 cells; HCT-116 resistant clone 2R, 1.71705e-5 M",742920 and 664400
same,CellTiter-Glo (ATP),"HCT-116 cells; HCT-116 resistant clone 2R, 1.78082e-5 M",650900 and 675880
same,CellTiter-Glo (ATP),"HCT-116 cells; HCT-116 resistant clone 2R, 2.87969e-5 M",418620 and 384180
same,CellTiter-Glo (ATP),"HCT-116 cells; HCT-116 resistant clone 2R, 2.98307e-5 M",380430 and 316510
same,CellTiter-Glo (ATP),"HCT-116 cells; HCT-116 resistant clone 2R, 7.99E-07 M",1.71E+06 and 1.76E+06 and 1.66E+06 and 1.65E+06
same,CellTiter-Glo (ATP),"HCT-116 cells; HCT-116 resistant clone 5R, 1.1988e-6 M",1.40E+06 and 1.72E+06
same,CellTiter-Glo (ATP),"HCT-116 cells; HCT-116 resistant clone 5R, 1.27872e-6 M",1.47E+06 and 1.50E+06
same,CellTiter-Glo (ATP),"HCT-116 cells; HCT-116 resistant clone 5R, 1.59745e-5 M",708690 and 643890
same,CellTiter-Glo (ATP),"HCT-116 cells; HCT-116 resistant clone 5R, 1.65326e-5 M",713930 and 686510
same,CellTiter-Glo (ATP),"HCT-116 cells; HCT-116 resistant clone 5R, 2.67284e-5 M",402240 and 357240
same,CellTiter-Glo (ATP),"HCT-116 cells; HCT-116 resistant clone 5R, 2.77628e-5 M",421400 and 366190
same,CellTiter-Glo (ATP),"HCT-116 cells; HCT-116 resistant clone 5R, 7.19E-07 M",1.56E+06 and 1.54E+06 and 1.42E+06 and 1.57E+06
same,CellTiter-Glo (ATP),"HCT-116 cells; HCT-116 resistant clone 6R, 1.11888e-6 M",1.62E+06 and 1.45E+06
same,CellTiter-Glo (ATP),"HCT-116 cells; HCT-116 resistant clone 6R, 1.1988e-6 M",1.35E+06 and 1.55E+06
same,CellTiter-Glo (ATP),"HCT-116 cells; HCT-116 resistant clone 6R, 1.48579e-5 M",838610 and 815000
same,CellTiter-Glo (ATP),"HCT-116 cells; HCT-116 resistant clone 6R, 1.54163e-5 M",808740 and 730030
same,CellTiter-Glo (ATP),"HCT-116 cells; HCT-116 resistant clone 6R, 2.48182e-5 M",327830 and 270480
same,CellTiter-Glo (ATP),"HCT-116 cells; HCT-116 resistant clone 6R, 2.57734e-5 M",314810 and 296570
same,CellTiter-Glo (ATP),"HCT-116 cells; HCT-116 resistant clone 6R, 6.71E-07 M",1.36E+06 and 1.56E+06
same,CellTiter-Glo (ATP),"HCT-116 cells; HCT-116 resistant clone 6R, 6.95E-07 M",1.61E+06 and 1.53E+06
same,CellTiter-Glo (ATP),"HCT-116 cells; HCT-116 resistant clone 8R, 1.03896e-6 M",1.50E+06 and 1.58E+06
same,CellTiter-Glo (ATP),"HCT-116 cells; HCT-116 resistant clone 8R, 1.11888e-6 M",1.51E+06 and 1.63E+06
same,CellTiter-Glo (ATP),"HCT-116 cells; HCT-116 resistant clone 8R, 1.42995e-5 M",543300 and 1.00E+06
same,CellTiter-Glo (ATP),"HCT-116 cells; HCT-116 resistant clone 8R, 2.30667e-5 M",427880 and 390970
same,CellTiter-Glo (ATP),"HCT-116 cells; HCT-116 resistant clone 8R, 2.39426e-5 M",409850 and 403510
same,CellTiter-Glo (ATP),"HCT-116 cells; HCT-116 resistant clone 8R, 4.00787e-5 M",298050 and 276140
same,CellTiter-Glo (ATP),"HCT-116 cells; HCT-116 resistant clone 8R, 6.23E-07 M",1.45E+06 and 1.63E+06
same,CellTiter-Glo (ATP),"HCT-116 cells; HCT-116 resistant clone 8R, 6.47E-07 M",1.55E+06 and 1.60E+06
same,CellTiter-Glo (ATP),"HCT-116 cells; HCT-116 resistant clone 9R, 1.03896e-6 M",288440 and 333120
same,CellTiter-Glo (ATP),"HCT-116 cells; HCT-116 resistant clone 9R, 2.13941e-5 M",65580 and 36800
same,CellTiter-Glo (ATP),"HCT-116 cells; HCT-116 resistant clone 9R, 2.22704e-5 M",50040 and 30190
same,CellTiter-Glo (ATP),"HCT-116 cells; HCT-116 resistant clone 9R, 3.58708e-5 M",46680 and 23830
same,CellTiter-Glo (ATP),"HCT-116 cells; HCT-116 resistant clone 9R, 3.72209e-5 M",43970 and 22740
same,CellTiter-Glo (ATP),"HCT-116 cells; HCT-116 resistant clone 9R, 5.79E-07 M",315200 and 382800
same,CellTiter-Glo (ATP),"HCT-116 cells; HCT-116 resistant clone 9R, 5.99E-07 M",335950 and 324000
same,CellTiter-Glo (ATP),"HCT-116 cells; HCT-116 resistant clone 9R, 9.59E-07 M",277130 and 355980
same,increase of IC50 relative to parental HCT-116 cells,HCT-116 cells; HQ461-resistant HCT-116 clones,three-fold
same,IC50,"HCT-116 cells; five HQ461-resistant clones, read-out: IC50 on the viability of five HQ461-resistant HCT-116 clones",13 to 14.3 µM
same,IC50,HCT-116 cells; read-out: IC50 on the viability of parental HCT-116,4.6 µM
same,CCNK destabilization with co-expressed wild-type CDK12 kinase domain,[3],sufficient for mediating HQ461-dependent destabilization of CCNK
